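Step 1: Grow cells in 96-well plates. Step 2: Expose to compound for 48 hours at 5 concentrations. Step 3: Interpolate endpoints linearly; if unreached, use highest concentration. TGI: concentration producing complete growth inhibition.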
Tests used:
Assay in all cases: NCI anticancer screen, dose series, 48 h
[1] = system: MDA-MB-231 breast
[2] = system: HOP-92 NSCLC
[3] = system: SK-MEL-28 melanoma
[4] = system: MOLT-4 leukemia
[5] = system: K-562 leukemia
[6] = system: UACC-62 melanoma
[7] = system: COLO 205 colon
[8] = system: BT-549 breast
[9] = system: SK-MEL-2 melanoma
[10] = system: MDA-N
[11] = system: T-47D breast
[12] = system: ACHN renal
[13] = system: SF-539 CNS
[14] = system: PC-3 prostate
[15] = system: SNB-19 CNS
[16] = system: OVCAR-3 ovarian
[17] = system: SF-268 CNS
[18] = system: M14 melanoma
[19] = system: HT29 colon
[20] = system: OVCAR-8 ovarian
[21] = system: OVCAR-5 ovarian
[22] = system: SK-OV-3 ovarian
[23] = system: 786-0 renal
[24] = system: HCT-15 colon
[25] = system: SNB-75 CNS
[26] = system: CCRF-CEM leukemia
[27] = system: CAKI-1 renal
[28] = system: OVCAR-4 ovarian
[29] = system: MALME-3M melanoma
[30] = system: NCI-H23 lung
[31] = system: UO-31 renal
[32] = system: MDA-MB-435
[33] = system: HCC-2998 colon
[34] = system: U251 CNS
[35] = system: SW-620 colon
[36] = system: SN12C renal
[37] = system: NCI/ADR-RES ovarian
[38] = system: NCI-H522 lung
[39] = system: SF-295 CNS
[40] = system: RXF 393 renal
[41] = system: KM12 colon
[42] = system: HOP-62 NSCLC
[43] = system: NCI-H460 lung
[44] = system: TK-10 renal
[45] = system: MCF7 breast
[46] = system: A498 renal
[47] = system: LOX IMVI melanoma
[48] = system: UACC-257 melanoma
[49] = system: HL-60(TB) leukemia
[50] = system: SK-MEL-5 melanoma
[51] = system: A549 NSCLC
[52] = system: IGROV1 ovarian
[53] = system: HCT-116 colon
[54] = system: EKVX NSCLC
[55] = system: HS 578T breast
[56] = system: RPMI-8226 leukemia
[57] = system: NCI-H226 lung
[58] = system: DU-145 prostate
[59] = system: SR leukemia

## Cc1cc(OC2OC(CO)C(O)C(O)C2O)ccc1O (stereo unspecified)
[1]
  TGI: > 100 µM
[2]
  TGI: > 100 µM
[3]
  TGI: > 100 µM
[4]
  TGI: > 100 µM
[5]
  TGI: > 100 µM
[6]
  TGI: > 100 µM
[7]
  TGI: > 100 µM
[8]
  TGI: > 100 µM
[9]
  TGI: > 100 µM
[10]
  TGI: > 100 µM
[11]
  TGI: > 100 µM
[12]
  TGI: > 100 µM
[13]
  TGI: > 100 µM
[14]
  TGI: > 100 µM
[15]
  TGI: > 100 µM
[16]
  TGI: > 100 µM
[17]
  TGI: > 100 µM
[18]
  TGI: > 100 µM
[19]
  TGI: > 100 µM
[20]
  TGI: > 100 µM
[21]
  TGI: > 100 µM
[22]
  TGI: > 100 µM
[23]
  TGI: > 100 µM
[24]
  TGI: > 100 µM
[25]
  TGI: > 100 µM
[26]
  TGI: > 100 µM
[27]
  TGI: > 100 µM
[28]
  TGI: > 100 µM
[29]
  TGI: > 100 µM
[30]
  TGI: > 100 µM
[31]
  TGI: > 100 µM
[32]
  TGI: > 100 µM
[33]
  TGI: > 100 µM
[34]
  TGI: > 100 µM
[35]
  TGI: > 100 µM
[36]
  TGI: > 100 µM
[37]
  TGI: > 100 µM
[38]
  TGI: > 100 µM
[39]
  TGI: > 100 µM
[40]
  TGI: > 100 µM
[41]
  TGI: > 100 µM
[42]
  TGI: > 100 µM
[43]
  TGI: > 100 µM
[44]
  TGI: > 100 µM
[45]
  TGI: > 100 µM
[46]
  TGI: > 100 µM
[47]
  TGI: > 100 µM
[48]
  TGI: > 100 µM
[49]
  TGI: > 100 µM
[50]
  TGI: > 100 µM
[51]
  TGI: > 100 µM
[52]
  TGI: > 100 µM
[53]
  TGI: > 100 µM
[54]
  TGI: > 100 µM
[55]
  TGI: > 100 µM
[56]
  TGI: > 100 µM

## O=[N+]([O-])/C=C/c1cc(Cl)c(/C=C/[N+](=O)[O-])cc1Cl
[2]
  TGI: 6.77 µM
[6]
  TGI: 4.34 µM
[7]
  TGI: 4.5 µM
[8]
  TGI: 3.25 µM
[9]
  TGI: 12.8 µM
[10]
  TGI: 8.19 µM
[11]
  TGI: 6.38 µM
[12]
  TGI: 2.97 µM
[14]
  TGI: 9.15 µM
[15]
  TGI: 6.91 µM
[16]
  TGI: 5.04 µM
[17]
  TGI: 16.5 µM
[18]
  TGI: 4.37 µM
[19]
  TGI: 5.78 µM
[57]
  TGI: 5.4 µM
[22]
  TGI: > 56.6 µM
[24]
  TGI: 4.19 µM
[25]
  TGI: 29.6 µM
[26]
  TGI: > 100 µM
[30]
  TGI: 22.5 µM
[32]
  TGI: 4.17 µM
[33]
  TGI: 3.99 µM
[35]
  TGI: 6.06 µM
[37]
  TGI: > 25 µM
[39]
  TGI: 25 µM
[40]
  TGI: 3.14 µM
[41]
  TGI: > 24.6 µM
[42]
  TGI: 31.8 µM
[43]
  TGI: 52.9 µM
[44]
  TGI: 2.9 µM
[45]
  TGI: > 33.2 µM
[58]
  TGI: 7.96 µM
[46]
  TGI: 14.2 µM
[47]
  TGI: 2.99 µM
[48]
  TGI: 5.25 µM
[50]
  TGI: 14.9 µM
[51]
  TGI: 36.1 µM
[52]
  TGI: 8.62 µM
[53]
  TGI: 7.1 µM
[54]
  TGI: 5.02 µM
[55]
  TGI: 8.25 µM
[56]
  TGI: 3.99 µM

## [O-][n+]1c2cccc(O)c2[n+]([O-])c2cccc(O)c21
[2]
  TGI: 97.5 µM
[4]
  TGI: > 100 µM
[5]
  TGI: > 100 µM
[7]
  TGI: > 100 µM
[8]
  TGI: > 100 µM
[10]
  TGI: > 100 µM
[11]
  TGI: > 100 µM
[12]
  TGI: 51.8 µM
[13]
  TGI: > 100 µM
[14]
  TGI: > 100 µM
[15]
  TGI: > 100 µM
[16]
  TGI: > 100 µM
[17]
  TGI: > 100 µM
[18]
  TGI: > 100 µM
[19]
  TGI: > 100 µM
[20]
  TGI: > 100 µM
[21]
  TGI: > 100 µM
[22]
  TGI: > 100 µM
[23]
  TGI: > 100 µM
[24]
  TGI: > 100 µM
[25]
  TGI: > 100 µM
[26]
  TGI: 56 µM
[27]
  TGI: > 100 µM
[28]
  TGI: > 100 µM
[30]
  TGI: > 100 µM
[31]
  TGI: > 100 µM
[32]
  TGI: > 100 µM
[34]
  TGI: > 100 µM
[35]
  TGI: > 100 µM
[37]
  TGI: > 100 µM
[38]
  TGI: > 100 µM
[39]
  TGI: > 100 µM
[40]
  TGI: > 100 µM
[41]
  TGI: > 100 µM
[42]
  TGI: > 100 µM
[43]
  TGI: > 100 µM
[44]
  TGI: > 100 µM
[45]
  TGI: > 100 µM
[58]
  TGI: > 100 µM
[46]
  TGI: > 100 µM
[47]
  TGI: > 100 µM
[48]
  TGI: > 100 µM
[49]
  TGI: > 100 µM
[50]
  TGI: > 100 µM
[51]
  TGI: > 100 µM
[52]
  TGI: 69 µM
[53]
  TGI: > 100 µM
[54]
  TGI: 76.2 µM
[55]
  TGI: > 100 µM
[56]
  TGI: 83.3 µM

## CC(C)=CC1C(C(=O)OCc2cc3c(cc2Cl)OCO3)C1(C)C (stereo unspecified)
[1]
  TGI: 86.6 µM
[2]
  TGI: > 100 µM
[3]
  TGI: > 100 µM
[4]
  TGI: 31.5 µM
[5]
  TGI: > 100 µM
[6]
  TGI: > 100 µM
[8]
  TGI: > 100 µM
[9]
  TGI: 23.1 µM
[10]
  TGI: 81.5 µM
[11]
  TGI: > 100 µM
[12]
  TGI: > 100 µM
[14]
  TGI: 36 µM
[15]
  TGI: > 100 µM
[16]
  TGI: > 100 µM
[17]
  TGI: > 100 µM
[18]
  TGI: > 100 µM
[19]
  TGI: > 100 µM
[20]
  TGI: > 100 µM
[57]
  TGI: > 100 µM
[21]
  TGI: > 100 µM
[23]
  TGI: > 100 µM
[24]
  TGI: > 100 µM
[25]
  TGI: > 100 µM
[26]
  TGI: > 100 µM
[27]
  TGI: > 100 µM
[28]
  TGI: > 100 µM
[29]
  TGI: 49 µM
[30]
  TGI: > 100 µM
[31]
  TGI: > 100 µM
[32]
  TGI: > 100 µM
[33]
  TGI: 58 µM
[34]
  TGI: 35.1 µM
[35]
  TGI: > 100 µM
[36]
  TGI: > 100 µM
[37]
  TGI: > 100 µM
[59]
  TGI: 33.4 µM
[38]
  TGI: 44.2 µM
[39]
  TGI: > 100 µM
[40]
  TGI: > 100 µM
[41]
  TGI: > 100 µM
[42]
  TGI: > 100 µM
[43]
  TGI: > 100 µM
[44]
  TGI: > 100 µM
[58]
  TGI: > 100 µM
[46]
  TGI: > 100 µM
[47]
  TGI: 33.5 µM
[48]
  TGI: 48.1 µM
[50]
  TGI: 34.2 µM
[51]
  TGI: > 100 µM
[52]
  TGI: 87.5 µM
[53]
  TGI: > 100 µM
[54]
  TGI: 80 µM
[55]
  TGI: > 100 µM
